Assay results from patent US5413915A (priority 1991, dated 1995).

How the values were obtained:
[1] = test system: microsomes; assay: Activity of microsome-containing layers after four day time lapse (Example 4); format: biochemical
Experimental: At least five spots were prepared on a glass plate according to the procedure in Example 2 above, and dried in air. The spots were translucent but generally colorless during the first day. […] On the third day, two of the remaining spots were "recharged" by a new layer containing fresh NADPH in gelatin. After drying, both spots were essentially colorless. […] Thus, the oxidative activity of microsomes dispersed in gelatin layers persists strongly for at least three days.

[2] = test system: rat liver microsomes; assay: Colorimetric reactions of constituents in bi-layer film (Example 1); format: biochemical
Experimental: In order to establish the color development behavior of various constituents employed in the invention alone and in several combinations, including two selected test chemicals, seven separate bi-layer film spots were prepared using an otherwise similar gelatin binder medium. The bottom layer of these spots contained reduced pararosaniline (PRA) in all instances except sample 7 wherein the oxidized PRA was substituted to illustrate the coloration of that constituent. An ascorbate salt was selected as typical of a benign test chemical, while benzo(a)pyrene was selected as a representative known carcinogen. The color behavior of the various samples was observed and identified in the following Table 3 together with the compositions of the samples tested.

[3] = in vivo; cited from earlier work
[4] = test system: rat liver microsomes; assay: Detection of benzo(a)pyrene on bilayer spot (Example 3); format: biochemical; conditions: 0.05 mL of 0.5 mg/mL solution on spot
Experimental: Two spots were prepared by manual streaking on a glass plate. The bottom layer of each spot consisted of 0.15 mL of a 4 mg/mL porcine 300 Bloom gelatin solution containing 1.2 mg/mL pararosaniline (PRA) reduced with solid sodium metabisulfite, spread over an area of 1100-1500 mm^2. After drying in air for two hours, the second layer, containing the following materials, was deposited. 0.05 mL of fresh rat liver microsomes containing approximately 62 mg/mL protein was added to 0.30 mL of a sodium phosphate buffer solution (pH=7.4) containing 4 mg/mL porcine 300 Bloom gelatin, and admixed with 0.02 mL of a solution containing 3 mM MgCl2, 50 mM tris(hydroxymethyl-)aminomethane buffer (pH=7.4) and 15 mM KCl. To this solution was added 10.5 mg solid reduced nicotinamide adenine dinucleotide phosphate (NADPH). 0.25 mL of this material was deposited over an area of 1300-1700 mm^2, completely covering the bottom layer, and was air dried for two hours. […] Within less than five minutes, violet color began to appear, and was well developed within twenty minutes.

[5] = test system: rat liver microsomes; format: biochemical; design: unit not given here
[6] = in vivo; cited from earlier work; remark: listed apart in the source
[7] = test system: rat liver microsomes; format: biochemical; design: key: Positive: the development of coloration denoted a positive response; Negative: the absence of such coloration denoted a negative response
[8] = Oxidation-reduction potentials and redox mediation of dyes and reagents; format: physicochemical
From the text: Diphenylmethane and triphenylmethane dyes of the present invention have midpoint oxidation-reduction ("redox") potentials ("Em7 ") apparently more negative than the Em7 value for NADPH or cytochrome P450 isozymes. […] Specific examples include pararosaniline (E1/2 =-0.75 V) and malachite green (E1/2 =-0.55 V) (W. Kemula and A. Axt (1969) op cit; Also H. O. Willard, L. L. Merritt, and J. A. Dean (1965) Instrumental Methods of Analysis, 4th Ed., pp. 682-685 and 760-763, for a comparison of E1/2 versus Em7. These potentials are too negative for direct measurement in water, as Em7 =-0.42 V for water breakdown to hydrogen.), both of which respond with color development upon microsomal metabolic activation.
Methylene blue is a rapidly mediating redox indicator, and as such is conventionally used for standardization of electrodes and electrochemical systems used in redox potentiometry. Systems containing ascorbate were therefore tightly clamped at a redox potential of +10 to +20 mV, regardless of any interfering influences such as oxygen. […] Spectrum "mb" is that of pure methylene blue in its oxidized state. Curve "oxid" is the spectrum of a mixed solution of methylene blue as in curve "mb" plus the fully oxidized pararosaniline. […]

[9] = literature (Kemula and Axt); cited from earlier work

Compound	Color developed on spot ([1]; fourth day, NADPH-recharged spot)	Color developed on spot ([1]; fourth day, not recharged)	Color developed on spot ([1]; second day, not recharged)	Color developed on spot ([1]; third day, recharged with fresh NADPH)	COLOR REACTION ([2]; no microsomes, no NADPH, bottom PRA-reduced (samples 5, 6))	COLOR REACTION ([2]; top layer with rat liver microsomes and NADPH, bottom PRA-reduced (sample 4))	Teratogen Activity [3]	Time until violet color began to appear [4]	Time until violet color well developed [4]	Detector Response, threshold dose [5]	Carcinogenic Status [6]	Tumorigen Activity [6]	Invention Response [7]	standard oxidation-reduction potential (Em7) ([8]; aqueous media, from FIG. 1 data)	Time to equilibrate in a redox voltage-clamped system ([8]; ascorbate / methylene blue clamped system)	E1/2 [9]
c1ccc2c(c1)cc1ccc3cccc4ccc2c1c34 [Benzo(a)pyrene]	strong violet color	strong violet color	strong violet color	deep purple color	No	Yes	+	less than five	twenty	0.01	Positive	+	Positive			
N=C1C=CC(=C(c2ccc(N)cc2)c2ccc(N)cc2)C=C1 [pararosaniline]														< -0.1 V	two	-0.75 V
